The supplement of paper PMC10307832

Experiments:
Experiment in all cases: relative viability (nuclei count vs DMSO), 5 days (fraction); higher = more cells survive
NCI-H3122 = tested on: NCI-H3122
How it was run: (§1)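 After 5 days of treatment, lung cancer cells in 1536-well plates were fixed and stained in a single step (final 0.05% Triton X-100, 1% formaldehyde, 1 ug/ml Hoechst) and their nuclei counted on 4× images. Treatment had been applied by pin tool the day after seeding as one drug alone or as a fixed anchor-drug dose with five library-drug doses (not always all listed) in √10 steps. Relative viability is the nuclei count of treated wells divided by that of vehicle wells, and values are medians of duplicate plates.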

NCI-H23 = tested on: NCI-H23
How it was run: as §1

NCI-H1975 = tested on: NCI-H1975
How it was run: as §1

NCI-H1734 = tested on: NCI-H1734
How it was run: as §1

LK-2 = tested on: LK-2
How it was run: as §1

NCI-H1651 = tested on: NCI-H1651
How it was run: as §1

ChaGo-K-1 = tested on: ChaGo-K-1
How it was run: as §1

A-427 = tested on: A-427
How it was run: as §1

NCI-H460 = tested on: NCI-H460
How it was run: as §1

LU99A = tested on: LU99A
How it was run: as §1

COR-L23 = tested on: COR-L23
How it was run: as §1

NCI-H2342 = tested on: NCI-H2342
How it was run: as §1

HARA = tested on: HARA
How it was run: as §1

NCI-H1792 = tested on: NCI-H1792
How it was run: as §1

SW 1573 = tested on: SW 1573
How it was run: as §1

LCLC-97TM1 = tested on: LCLC-97TM1
How it was run: as §1

SK-MES-1 = tested on: SK-MES-1
How it was run: as §1

NCI-H2126 = tested on: NCI-H2126
How it was run: as §1

NCI-H661 = tested on: NCI-H661
How it was run: as §1

ABC-1 = tested on: ABC-1
How it was run: as §1

LOU-NH91 = tested on: LOU-NH91
How it was run: as §1

NCI-H1395 = tested on: NCI-H1395
How it was run: as §1

NCI-H2405 = tested on: NCI-H2405
How it was run: as §1

NCI-H838 = tested on: NCI-H838
How it was run: as §1

NCI-H2023 = tested on: NCI-H2023
How it was run: as §1

With `Nc1cccc2c1CN(C1CCC(=O)NC1=O)C2=O` (configuration not stated) [Lenalidomide] + CCNC(=O)c1noc(-c2cc(C(C)C)c(O)cc2O)c1-c1ccc(CN2CCOCC2)cc1 [Luminespib] (partner 0.01 µM) the relative viability (NCI-H3122; first compound 0.253 µM) was 0.0887, the relative viability (NCI-H3122; first compound 0.8 µM) was 0.0863 and the relative viability (NCI-H3122; first compound 2.53 µM) was 0.0693. For the same compound, the relative viability (NCI-H3122; first compound 8 µM) was 0.102, the relative viability (NCI-H23; first compound 0.253 µM) was 0.218 and the relative viability (NCI-H23; first compound 0.8 µM) was 0.173. It also gave a relative viability (NCI-H23; first compound 2.53 µM) of 0.196, a relative viability (NCI-H23; first compound 8 µM) of 0.228 and a relative viability (NCI-H1975; first compound 0.253 µM) of 0.194. For the same compound, the relative viability (NCI-H1975; first compound 0.8 µM) was 0.235, the relative viability (NCI-H1975; first compound 2.53 µM) was 0.251 and the relative viability (NCI-H1975; first compound 8 µM) was 0.196. It also gave a relative viability (NCI-H1734; first compound 0.253 µM) of 0.157, a relative viability (NCI-H1734; first compound 0.8 µM) of 0.202 and a relative viability (NCI-H1734; first compound 2.53 µM) of 0.206. It also gave a relative viability (NCI-H1734; first compound 8 µM) of 0.196, a relative viability (LK-2; first compound 0.253 µM) of 0.195 and a relative viability (LK-2; first compound 0.8 µM) of 0.179. For the same compound, the relative viability (LK-2; first compound 2.53 µM) was 0.173, the relative viability (LK-2; first compound 8 µM) was 0.193 and the relative viability (NCI-H1651; first compound 0.253 µM) was 0.713. It also gave a relative viability (NCI-H1651; first compound 0.8 µM) of 0.895, a relative viability (NCI-H1651; first compound 2.53 µM) of 0.987 and a relative viability (NCI-H1651; first compound 8 µM) of 1.03. The relative viability (ChaGo-K-1; first compound 0.253 µM) was 0.649, the relative viability (ChaGo-K-1; first compound 0.8 µM) was 0.506 and the relative viability (ChaGo-K-1; first compound 2.53 µM) was 0.788. For the same compound, the relative viability (ChaGo-K-1; first compound 8 µM) was 0.541, the relative viability (A-427; first compound 0.253 µM) was 0.807 and the relative viability (A-427; first compound 0.8 µM) was 1. The relative viability (A-427; first compound 2.53 µM) was 0.914, the relative viability (A-427; first compound 8 µM) was 1.01 and the relative viability (NCI-H460; first compound 0.253 µM) was 0.0318. For the same compound, the relative viability (NCI-H460; first compound 0.8 µM) was 0.0303, the relative viability (NCI-H460; first compound 2.53 µM) was 0.035 and the relative viability (NCI-H460; first compound 8 µM) was 0.0323. For the same compound, the relative viability (LU99A; first compound 0.253 µM) was 0.236, the relative viability (LU99A; first compound 0.8 µM) was 0.249 and the relative viability (LU99A; first compound 2.53 µM) was 0.258. For the same compound, the relative viability (LU99A; first compound 8 µM) was 0.258, the relative viability (COR-L23; first compound 0.253 µM) was 0.683 and the relative viability (COR-L23; first compound 0.8 µM) was 0.766. It also gave a relative viability (COR-L23; first compound 2.53 µM) of 0.735, a relative viability (COR-L23; first compound 8 µM) of 0.758 and a relative viability (NCI-H2342; first compound 0.253 µM) of 0.706. The relative viability (NCI-H2342; first compound 0.8 µM) was 0.744, the relative viability (NCI-H2342; first compound 2.53 µM) was 0.806 and the relative viability (NCI-H2342; first compound 8 µM) was 0.56. The relative viability (HARA; first compound 0.253 µM) was 0.679, the relative viability (HARA; first compound 2.53 µM) was 0.614 and the relative viability (HARA; first compound 8 µM) was 1.03. For the same compound, the relative viability (NCI-H1792; first compound 0.253 µM) was 0.357, the relative viability (NCI-H1792; first compound 2.53 µM) was 0.449 and the relative viability (NCI-H1792; first compound 8 µM) was 0.495. It also gave a relative viability (SW 1573; first compound 0.253 µM) of 0.538, a relative viability (SW 1573; first compound 0.8 µM) of 0.198 and a relative viability (SW 1573; first compound 2.53 µM) of 0.162. For the same compound, the relative viability (SW 1573; first compound 8 µM) was 0.366, the relative viability (LCLC-97TM1; first compound 0.253 µM) was 0.763 and the relative viability (LCLC-97TM1; first compound 0.8 µM) was 0.707. For the same compound, the relative viability (LCLC-97TM1; first compound 2.53 µM) was 0.848, the relative viability (LCLC-97TM1; first compound 8 µM) was 0.761 and the relative viability (SK-MES-1; first compound 0.253 µM) was 0.777. It also gave a relative viability (SK-MES-1; first compound 0.8 µM) of 0.891, a relative viability (SK-MES-1; first compound 2.53 µM) of 0.886 and a relative viability (SK-MES-1; first compound 8 µM) of 0.863. For the same compound, the relative viability (NCI-H2126; first compound 0.253 µM) was 0.915, the relative viability (NCI-H2126; first compound 0.8 µM) was 0.935 and the relative viability (NCI-H2126; first compound 2.53 µM) was 0.996. The relative viability (NCI-H2126; first compound 8 µM) was 0.871, the relative viability (NCI-H661; first compound 0.253 µM) was 0.835 and the relative viability (NCI-H661; first compound 0.8 µM) was 0.864. It also gave a relative viability (NCI-H661; first compound 2.53 µM) of 0.847, a relative viability (NCI-H661; first compound 8 µM) of 0.9 and a relative viability (ABC-1; first compound 0.253 µM) of 0.908. For the same compound, the relative viability (ABC-1; first compound 2.53 µM) was 0.684, the relative viability (ABC-1; first compound 8 µM) was 0.517 and the relative viability (LOU-NH91; first compound 0.253 µM) was 0.343. It also gave a relative viability (LOU-NH91; first compound 0.8 µM) of 0.343, a relative viability (LOU-NH91; first compound 2.53 µM) of 0.313 and a relative viability (LOU-NH91; first compound 8 µM) of 0.283. It also gave a relative viability (NCI-H1395; first compound 0.253 µM) of 0.796, a relative viability (NCI-H1395; first compound 0.8 µM) of 0.72 and a relative viability (NCI-H1395; first compound 2.53 µM) of 0.855. For the same compound, the relative viability (NCI-H1395; first compound 8 µM) was 0.615, the relative viability (NCI-H2405; first compound 0.253 µM) was 0.665 and the relative viability (NCI-H2405; first compound 0.8 µM) was 0.76. For the same compound, the relative viability (NCI-H2405; first compound 2.53 µM) was 0.757, the relative viability (NCI-H2405; first compound 8 µM) was 0.644 and the relative viability (NCI-H838; first compound 0.253 µM) was 0.338. For the same compound, the relative viability (NCI-H838; first compound 0.8 µM) was 0.308, the relative viability (NCI-H838; first compound 2.53 µM) was 0.269 and the relative viability (NCI-H838; first compound 8 µM) was 0.4. It also gave a relative viability (NCI-H2023; first compound 0.253 µM) of 0.869, a relative viability (NCI-H2023; first compound 0.8 µM) of 0.915 and a relative viability (NCI-H2023; first compound 2.53 µM) of 0.685. It also gave a relative viability (NCI-H2023; first compound 8 µM) of 0.824.
